Data set [1] relates to Escherichia coli. Put plainly: microbe, parasite or virus in culture.
The nature of a further data set: cells. Format: functional.
The subject of data set [2] is Vero. Put plainly: cells. In kind it is functional, cell-based. Particulars: Chlorocebus sabaeus.
The nature of data set [3]: Trypanosoma cruzi growth suppression in host cells – NIH3T3 host cells, beta-gal luminescence, confirmation (AID 2044).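 Also: intracellular parasites grown in NIH/3T3 mouse fibroblasts as host cells; luminescent beta-galactosidase reporter signal from transgenic T. cruzi replicating inside host cells; inhibitors lower the luminescence signal.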 In kind it is functional, cell-based.
Data set [4] is described as follows: NIH3T3 cell viability loss – ATP luminescence, mouse fibroblasts, counter-screen, dose response (AID 2010).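 Also: cells exposed to compound for about 90 hours before reading.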 In kind it is functional, cell-based.
The target in data set [5] is 5-hydroxytryptamine receptor 5A (Homo sapiens, UniProt P47898). Description: Counterscreen for agonists of OPRM1-OPRD1 heterodimerization: luminescence-based cell-based high throughput dose response assay to identify agonists of 5-hydroxytryptamine (serotonin) 5A receptor (HTR5A). [Related pubchem assays (depositor defined):AID504326, AID504355, AID504692, AID504904, AID504905]. Format: functional.

For data set [6], the target named is T1, Short transient receptor potential channel 4 (Mus musculus, UniProt Q9QUQ5).
T1 sequence (Q9QUQ5 whole entry): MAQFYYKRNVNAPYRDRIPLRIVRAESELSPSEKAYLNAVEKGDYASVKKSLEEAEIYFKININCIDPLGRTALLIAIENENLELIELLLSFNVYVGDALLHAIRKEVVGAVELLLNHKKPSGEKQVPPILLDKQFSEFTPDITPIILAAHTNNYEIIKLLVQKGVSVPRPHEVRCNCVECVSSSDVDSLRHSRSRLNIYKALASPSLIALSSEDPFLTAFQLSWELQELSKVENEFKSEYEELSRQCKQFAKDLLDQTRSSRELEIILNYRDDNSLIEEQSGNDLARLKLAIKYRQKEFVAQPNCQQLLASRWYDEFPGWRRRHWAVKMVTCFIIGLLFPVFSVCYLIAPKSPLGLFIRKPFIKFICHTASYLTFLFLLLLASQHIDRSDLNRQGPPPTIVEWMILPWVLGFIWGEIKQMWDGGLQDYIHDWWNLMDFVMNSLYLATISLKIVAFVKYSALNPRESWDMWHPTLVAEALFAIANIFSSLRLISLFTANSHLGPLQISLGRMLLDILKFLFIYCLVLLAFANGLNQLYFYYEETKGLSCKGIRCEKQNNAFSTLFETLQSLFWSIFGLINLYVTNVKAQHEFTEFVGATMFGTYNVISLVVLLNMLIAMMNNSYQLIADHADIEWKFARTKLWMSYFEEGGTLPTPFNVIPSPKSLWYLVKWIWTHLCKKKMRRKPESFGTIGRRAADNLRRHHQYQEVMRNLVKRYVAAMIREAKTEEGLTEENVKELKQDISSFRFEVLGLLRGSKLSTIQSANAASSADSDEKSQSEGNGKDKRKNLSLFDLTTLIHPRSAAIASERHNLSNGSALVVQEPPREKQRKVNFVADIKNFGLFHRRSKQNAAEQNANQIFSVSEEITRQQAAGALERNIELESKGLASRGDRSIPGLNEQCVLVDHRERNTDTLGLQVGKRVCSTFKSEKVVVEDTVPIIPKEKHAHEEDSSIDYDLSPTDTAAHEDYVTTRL
Put plainly: calcium entry via TRPC4 opening agents – cell-based, HEK293 TRPC4/mu-opioid, Fluo-4 calcium, dose response (AID 434937). Format: functional.

Another data set addresses Mu-type opioid receptor (Homo sapiens, UniProt P35372). Description: Counterscreen for agonists of heterodimerization of the mu 1 (OPRM1) and delta 1 (OPRD1) opioid receptors: Luminescence-based cell-based high throughput dose response assay to identify agonists of OPRM1 homodimerization. In kind it is functional.
Data set [7] addresses Delta-type opioid receptor (Homo sapiens, UniProt P41143). Description: Counterscreen for agonists of heterodimerization of the mu 1 (OPRM1) and delta 1 (OPRD1) opioid receptors: Luminescence-based cell-based high throughput dose response assay to identify agonists of OPRD1 homodimerization. [Related pubchem assays (depositor defined):AID504326, AID504355, AID504692, AID504904, AID504905]. In kind it is functional. In general terms: The purpose of a counterscreen is to sort out artefacts and off-target activity.

Data set [8] deals with T2, Replicative DNA helicase DnaB (Mycobacterium tuberculosis, UniProt P9WMR3).
T2 sequence (P9WMR3 whole entry): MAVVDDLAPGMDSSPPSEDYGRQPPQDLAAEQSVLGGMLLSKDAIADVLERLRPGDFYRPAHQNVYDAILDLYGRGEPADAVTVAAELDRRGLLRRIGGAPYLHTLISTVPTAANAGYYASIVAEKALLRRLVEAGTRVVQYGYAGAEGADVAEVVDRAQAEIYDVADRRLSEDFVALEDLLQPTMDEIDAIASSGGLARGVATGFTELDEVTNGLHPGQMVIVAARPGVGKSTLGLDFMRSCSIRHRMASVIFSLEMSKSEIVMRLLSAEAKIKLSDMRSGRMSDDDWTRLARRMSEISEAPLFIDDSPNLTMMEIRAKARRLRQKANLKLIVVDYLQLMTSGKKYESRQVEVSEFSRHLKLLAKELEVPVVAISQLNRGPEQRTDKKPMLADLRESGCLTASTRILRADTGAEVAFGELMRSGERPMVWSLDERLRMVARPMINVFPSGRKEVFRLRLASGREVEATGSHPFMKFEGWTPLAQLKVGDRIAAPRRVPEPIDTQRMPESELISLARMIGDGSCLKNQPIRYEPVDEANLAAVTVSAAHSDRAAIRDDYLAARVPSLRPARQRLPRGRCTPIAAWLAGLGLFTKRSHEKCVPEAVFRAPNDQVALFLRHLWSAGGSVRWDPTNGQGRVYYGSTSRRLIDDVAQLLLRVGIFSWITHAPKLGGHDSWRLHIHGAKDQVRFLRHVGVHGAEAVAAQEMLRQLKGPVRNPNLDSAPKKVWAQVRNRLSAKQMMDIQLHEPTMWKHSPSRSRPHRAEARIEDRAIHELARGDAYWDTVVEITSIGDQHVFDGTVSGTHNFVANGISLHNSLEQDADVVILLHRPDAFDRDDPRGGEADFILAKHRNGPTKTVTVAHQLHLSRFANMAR
Put plainly: DnaB intein splicing inhibitors, dose response, biochemical, cell-free fluorescence (AID 449749). Format: functional.

For data set [9], the target named is T3, Fatty acid synthase (Homo sapiens, UniProt P49327). Put plainly: inhibition of human FAS-TE enzyme activity – biochemical, kinetic fluorescence intensity, dose response (AID 624326).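 Also: rate of fluorescence rise from hydrolysis of a fluorogenic O-methyl fluorescein ester substrate.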 Format: functional.
The subject of data set [10] is HEK293. Put plainly: cells. Particulars: Homo sapiens.
The test system of data set [11] is HEK293. Put plainly: cells. Particulars: Homo sapiens. The source holds these as a separate data set.
Data set [12] has as its target T3, Fatty acid synthase. Put plainly: inhibition of human FAS-TE enzyme activity – biochemical, endpoint fluorescence intensity, uHTS hits, dose response (AID 624327).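 Also: fluorescence from hydrolysis of an O-methyl fluorescein acyl ester substrate by the enzyme.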 Format: functional.
Another data set addresses T4, Protein RecA (Mycobacterium tuberculosis, UniProt P9WHJ3).
T4 sequence (P9WHJ3 whole entry): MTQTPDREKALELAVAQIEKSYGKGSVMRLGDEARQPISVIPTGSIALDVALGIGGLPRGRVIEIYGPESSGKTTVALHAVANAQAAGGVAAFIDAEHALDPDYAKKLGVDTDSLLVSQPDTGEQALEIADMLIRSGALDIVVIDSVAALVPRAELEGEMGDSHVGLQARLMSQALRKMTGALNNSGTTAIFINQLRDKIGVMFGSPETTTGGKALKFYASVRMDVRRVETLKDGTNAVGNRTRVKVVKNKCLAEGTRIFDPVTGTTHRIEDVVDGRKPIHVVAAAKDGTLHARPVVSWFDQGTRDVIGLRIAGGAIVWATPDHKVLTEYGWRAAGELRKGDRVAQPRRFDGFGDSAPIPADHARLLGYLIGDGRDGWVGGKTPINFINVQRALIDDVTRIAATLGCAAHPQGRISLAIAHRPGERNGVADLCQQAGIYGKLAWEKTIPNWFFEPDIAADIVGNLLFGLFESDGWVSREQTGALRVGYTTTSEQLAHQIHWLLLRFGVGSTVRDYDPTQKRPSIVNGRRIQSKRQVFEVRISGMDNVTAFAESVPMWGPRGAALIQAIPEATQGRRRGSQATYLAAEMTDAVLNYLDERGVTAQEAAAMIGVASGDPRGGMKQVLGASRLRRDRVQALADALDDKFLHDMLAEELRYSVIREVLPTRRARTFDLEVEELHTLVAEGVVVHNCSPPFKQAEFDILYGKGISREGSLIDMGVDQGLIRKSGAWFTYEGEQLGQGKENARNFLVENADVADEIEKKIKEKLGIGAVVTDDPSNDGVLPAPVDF
Put plainly: Fluorescence Cell-Free Homogeneous Dose Retest to Identify Inhibitors of RecA-Intein Splicing Activity. [Related pubchem assays (depositor defined):AID2097, AID2223, AID489010, AID492950]. In kind it is functional.

Data set [13] concerns Vero. Description: mammalian cell viability reduction – secondary assay, cytotoxicity control for West Nile virus antiviral project, dose response (AID 1650). Format: functional. Particulars: Chlorocebus sabaeus.
In data set [14] the test system is Vero. Put plainly: cells. Format: functional. Particulars: Chlorocebus sabaeus.
Data set [15] is described as follows: viability of uninfected HEp-2 cells – cell-based, HTS, cytotoxicity control for RSV inhibitor project, dose response (AID 2410). In kind it is functional. Particulars: human respiratory syncytial virus.
The target of a further data set is Cytochrome P450 2C19 (Homo sapiens, UniProt P33261). Put plainly: Cytochrome panel assay with activity outcomes. Panel member name: p450-cyp2c19 Compounds with AC50 equal or less than 10 uM are considered active. In kind it is functional.
The target in a further data set is T5, Cytochrome P450 1A2 (Homo sapiens, UniProt P05177).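 Also: PubChem cytochrome P450 panel assay, CYP1A2 panel member.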
T5 sequence (P05177 whole entry): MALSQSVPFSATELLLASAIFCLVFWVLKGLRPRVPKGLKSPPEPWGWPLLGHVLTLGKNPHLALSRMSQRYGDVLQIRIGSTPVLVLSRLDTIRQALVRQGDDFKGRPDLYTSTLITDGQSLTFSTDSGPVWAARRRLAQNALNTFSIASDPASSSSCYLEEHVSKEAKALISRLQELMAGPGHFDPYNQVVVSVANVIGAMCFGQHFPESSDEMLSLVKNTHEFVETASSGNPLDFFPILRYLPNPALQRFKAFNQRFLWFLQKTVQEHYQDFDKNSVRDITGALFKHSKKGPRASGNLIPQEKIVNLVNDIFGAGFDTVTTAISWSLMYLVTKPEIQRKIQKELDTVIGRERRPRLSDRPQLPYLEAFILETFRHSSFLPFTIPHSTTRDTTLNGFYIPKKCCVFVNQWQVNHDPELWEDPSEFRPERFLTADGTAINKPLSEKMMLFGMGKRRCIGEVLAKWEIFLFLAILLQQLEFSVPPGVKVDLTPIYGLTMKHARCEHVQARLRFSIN

Another data set addresses Cytochrome P450 2C9 (Homo sapiens, UniProt P11712).
Data set [16] relates to Escherichia coli. Description: microbe, parasite or virus in culture. This is another data set of the same source.
Data set [17] addresses T1, Short transient receptor potential channel 4. Put plainly: SAR Analysis for the identification of selective inhibits of the transient receptor potential cation channel C4 (TRPC4): Automated Electrophysiology_2. [Related pubchem assays (depositor defined):AID2256]. Format: functional.

What is called AC50 is the concentration at which the activity in the assay is half-maximal. As a reminder, the IC50 is the concentration needed to halve the response being measured. In general, EC50 refers to the concentration giving half of the maximal effect. The term CC50 denotes the concentration giving 50% cytotoxicity.

Active and inactive are the calls of the source.

T3 sequence (P49327 whole entry): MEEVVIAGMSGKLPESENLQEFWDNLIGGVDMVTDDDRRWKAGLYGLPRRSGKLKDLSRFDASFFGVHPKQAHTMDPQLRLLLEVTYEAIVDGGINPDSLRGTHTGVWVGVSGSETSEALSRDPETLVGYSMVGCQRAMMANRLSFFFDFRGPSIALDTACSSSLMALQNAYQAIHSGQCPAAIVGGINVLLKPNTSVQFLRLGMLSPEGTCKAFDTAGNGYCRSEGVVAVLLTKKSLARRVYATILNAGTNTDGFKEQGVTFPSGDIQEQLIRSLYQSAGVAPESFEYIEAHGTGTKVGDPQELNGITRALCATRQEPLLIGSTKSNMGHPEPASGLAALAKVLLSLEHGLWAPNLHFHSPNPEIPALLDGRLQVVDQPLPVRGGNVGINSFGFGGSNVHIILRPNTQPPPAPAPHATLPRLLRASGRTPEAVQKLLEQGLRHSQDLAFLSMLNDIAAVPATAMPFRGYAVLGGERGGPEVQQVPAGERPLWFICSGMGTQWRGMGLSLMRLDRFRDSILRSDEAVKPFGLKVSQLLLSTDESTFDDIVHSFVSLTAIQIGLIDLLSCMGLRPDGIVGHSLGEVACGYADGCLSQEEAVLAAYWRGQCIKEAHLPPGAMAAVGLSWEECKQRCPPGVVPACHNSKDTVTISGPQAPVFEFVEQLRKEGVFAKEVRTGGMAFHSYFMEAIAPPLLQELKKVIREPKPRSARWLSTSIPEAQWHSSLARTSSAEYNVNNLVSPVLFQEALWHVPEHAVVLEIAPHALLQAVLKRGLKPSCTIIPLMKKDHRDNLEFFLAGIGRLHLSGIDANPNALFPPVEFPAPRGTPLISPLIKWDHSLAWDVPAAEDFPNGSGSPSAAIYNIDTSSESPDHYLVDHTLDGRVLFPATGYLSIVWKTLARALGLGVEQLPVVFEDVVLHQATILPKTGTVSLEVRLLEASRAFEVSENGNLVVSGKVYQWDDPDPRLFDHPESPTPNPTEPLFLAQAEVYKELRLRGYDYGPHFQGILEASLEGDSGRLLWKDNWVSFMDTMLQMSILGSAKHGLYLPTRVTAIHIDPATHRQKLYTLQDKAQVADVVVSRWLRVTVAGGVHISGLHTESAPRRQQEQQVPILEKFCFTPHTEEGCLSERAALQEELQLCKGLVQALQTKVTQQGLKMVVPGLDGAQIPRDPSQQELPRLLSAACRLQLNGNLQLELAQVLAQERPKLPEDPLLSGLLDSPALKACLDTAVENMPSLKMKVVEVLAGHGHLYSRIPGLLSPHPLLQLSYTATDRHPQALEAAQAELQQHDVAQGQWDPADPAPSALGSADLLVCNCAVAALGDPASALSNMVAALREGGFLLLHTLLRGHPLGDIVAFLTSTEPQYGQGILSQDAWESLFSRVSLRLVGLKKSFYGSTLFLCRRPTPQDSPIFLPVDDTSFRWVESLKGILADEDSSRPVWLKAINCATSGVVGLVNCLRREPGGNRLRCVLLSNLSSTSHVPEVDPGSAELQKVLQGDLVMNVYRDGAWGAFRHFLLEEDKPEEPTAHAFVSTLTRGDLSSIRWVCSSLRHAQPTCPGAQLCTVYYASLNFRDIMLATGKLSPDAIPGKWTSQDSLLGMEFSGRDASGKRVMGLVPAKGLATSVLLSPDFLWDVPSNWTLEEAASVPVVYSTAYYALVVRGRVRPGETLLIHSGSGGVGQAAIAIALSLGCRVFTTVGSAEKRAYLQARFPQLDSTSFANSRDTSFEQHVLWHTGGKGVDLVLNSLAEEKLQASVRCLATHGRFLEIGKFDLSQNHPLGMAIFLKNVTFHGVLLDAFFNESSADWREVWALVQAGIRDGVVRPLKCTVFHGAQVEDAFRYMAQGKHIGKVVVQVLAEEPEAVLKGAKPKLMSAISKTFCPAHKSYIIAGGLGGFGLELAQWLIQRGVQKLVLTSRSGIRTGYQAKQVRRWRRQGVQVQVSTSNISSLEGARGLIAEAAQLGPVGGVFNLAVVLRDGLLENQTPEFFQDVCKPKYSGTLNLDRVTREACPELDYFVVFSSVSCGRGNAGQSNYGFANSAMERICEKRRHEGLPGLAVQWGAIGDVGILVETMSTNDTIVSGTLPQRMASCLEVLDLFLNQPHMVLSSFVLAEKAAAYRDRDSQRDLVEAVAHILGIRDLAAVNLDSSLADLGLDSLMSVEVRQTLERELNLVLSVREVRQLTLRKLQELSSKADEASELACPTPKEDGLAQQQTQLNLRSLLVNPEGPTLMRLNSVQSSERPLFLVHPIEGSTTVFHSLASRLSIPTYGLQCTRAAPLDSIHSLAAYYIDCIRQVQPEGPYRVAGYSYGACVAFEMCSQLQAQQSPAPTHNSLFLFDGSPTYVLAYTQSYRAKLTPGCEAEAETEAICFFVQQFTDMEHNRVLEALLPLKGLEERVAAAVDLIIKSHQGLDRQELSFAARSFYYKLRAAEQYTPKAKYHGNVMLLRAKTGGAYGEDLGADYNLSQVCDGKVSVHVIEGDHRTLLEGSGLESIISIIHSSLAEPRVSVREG
5-hydroxytryptamine receptor 5A, sequence (P47898 whole entry): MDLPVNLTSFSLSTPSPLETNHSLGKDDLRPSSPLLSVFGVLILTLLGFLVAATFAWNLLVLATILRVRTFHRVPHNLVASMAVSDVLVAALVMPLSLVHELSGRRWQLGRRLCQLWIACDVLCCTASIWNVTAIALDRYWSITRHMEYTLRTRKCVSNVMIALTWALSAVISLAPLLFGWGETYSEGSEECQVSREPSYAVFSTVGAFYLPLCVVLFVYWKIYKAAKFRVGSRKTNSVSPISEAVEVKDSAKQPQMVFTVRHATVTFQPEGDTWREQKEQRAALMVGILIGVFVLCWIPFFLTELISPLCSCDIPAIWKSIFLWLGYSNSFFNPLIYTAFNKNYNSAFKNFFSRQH
Cytochrome P450 2C19, sequence (P33261 whole entry): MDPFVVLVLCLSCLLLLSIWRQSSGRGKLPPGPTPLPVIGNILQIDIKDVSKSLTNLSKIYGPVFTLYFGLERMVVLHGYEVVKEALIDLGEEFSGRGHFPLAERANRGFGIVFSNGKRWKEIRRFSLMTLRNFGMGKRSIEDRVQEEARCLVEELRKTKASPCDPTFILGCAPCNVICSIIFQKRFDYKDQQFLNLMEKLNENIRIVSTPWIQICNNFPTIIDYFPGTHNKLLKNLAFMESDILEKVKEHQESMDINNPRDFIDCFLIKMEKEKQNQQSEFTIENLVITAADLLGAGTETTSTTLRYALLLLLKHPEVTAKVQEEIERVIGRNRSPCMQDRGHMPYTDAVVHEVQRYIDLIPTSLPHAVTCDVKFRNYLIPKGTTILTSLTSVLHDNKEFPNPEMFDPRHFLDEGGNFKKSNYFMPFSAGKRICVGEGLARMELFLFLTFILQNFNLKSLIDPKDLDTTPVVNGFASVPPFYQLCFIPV
Mu-type opioid receptor, sequence (P35372 whole entry): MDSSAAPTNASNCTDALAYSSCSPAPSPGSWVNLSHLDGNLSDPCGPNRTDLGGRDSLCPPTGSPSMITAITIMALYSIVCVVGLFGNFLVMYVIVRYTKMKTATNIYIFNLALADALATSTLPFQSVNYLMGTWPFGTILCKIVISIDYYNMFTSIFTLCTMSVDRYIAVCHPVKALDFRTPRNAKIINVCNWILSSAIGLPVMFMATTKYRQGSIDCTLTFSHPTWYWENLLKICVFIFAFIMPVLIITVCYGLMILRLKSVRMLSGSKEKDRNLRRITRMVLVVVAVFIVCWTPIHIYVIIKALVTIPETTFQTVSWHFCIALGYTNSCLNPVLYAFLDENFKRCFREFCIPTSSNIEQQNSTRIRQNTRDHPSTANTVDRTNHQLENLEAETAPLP
Delta-type opioid receptor, sequence (P41143 whole entry): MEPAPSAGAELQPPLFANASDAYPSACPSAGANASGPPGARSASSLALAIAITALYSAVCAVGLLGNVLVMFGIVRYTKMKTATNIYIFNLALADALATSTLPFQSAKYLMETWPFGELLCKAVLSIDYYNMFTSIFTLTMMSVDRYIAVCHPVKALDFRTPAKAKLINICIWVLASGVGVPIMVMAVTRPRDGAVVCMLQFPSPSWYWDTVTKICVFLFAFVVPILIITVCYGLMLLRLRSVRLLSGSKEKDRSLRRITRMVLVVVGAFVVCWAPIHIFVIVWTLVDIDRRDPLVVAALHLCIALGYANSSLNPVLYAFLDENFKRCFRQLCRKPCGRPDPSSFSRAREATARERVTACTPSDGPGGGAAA
Cytochrome P450 2C9, sequence (P11712 whole entry): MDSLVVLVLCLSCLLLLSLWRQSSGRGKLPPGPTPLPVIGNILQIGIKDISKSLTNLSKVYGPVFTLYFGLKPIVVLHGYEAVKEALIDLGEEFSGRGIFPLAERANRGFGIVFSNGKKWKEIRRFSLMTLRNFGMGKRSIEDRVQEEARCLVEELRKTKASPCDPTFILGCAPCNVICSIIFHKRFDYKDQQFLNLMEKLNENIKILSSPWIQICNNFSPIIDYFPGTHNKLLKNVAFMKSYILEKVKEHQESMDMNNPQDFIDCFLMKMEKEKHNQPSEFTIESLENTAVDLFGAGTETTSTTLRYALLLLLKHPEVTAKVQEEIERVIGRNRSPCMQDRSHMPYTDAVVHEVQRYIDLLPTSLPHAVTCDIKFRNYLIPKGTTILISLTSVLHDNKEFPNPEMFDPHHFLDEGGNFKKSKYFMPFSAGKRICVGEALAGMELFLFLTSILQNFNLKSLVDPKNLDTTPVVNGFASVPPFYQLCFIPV

Take `CCCCOCC1CN(c2ccccc2)C(=O)CS1` (stereo unspecified): the AC50 with Escherichia coli [1] is 20.9 µM (active).
`O=C1c2cccc3cc([N+](=O)[O-])cc(c23)C(=O)N1c1ccccc1O`: the IC50 in “cells” was > 50 µM (active); in the data set with Vero [2], 2.35 µM (active). For the same molecule, the EC50 in data set [3] was 0.354 µM (active); in data set [4] it was 9.05 µM (active).
For `CCOC(=O)C1(CC2CCCCO2)CCN(Cc2c(C)cc(C)cc2-n2cccn2)CC1` (stereo unspecified), the EC50 was > 92.5 µM (inactive) in data set [5], 0.0293 µM (active) in data set [6], 15.5 µM (inactive) on Mu-type opioid receptor and > 92.5 µM (inactive) in data set [7].
Regarding `CCc1cccc(CC)c1NC(=O)/C(C#N)=C/c1ccccc1C(F)(F)F`, the concentration at half-maximal activity (AC50) in data set [8] was 4.45 µM (active). In addition, the IC50 on Fatty acid synthase [9] is 4.74 µM (active); on Fatty acid synthase [12], 7.72 µM (active). Moreover, the results for the EC50 with HEK293 [10], in the data set with HEK293 [11] and at Protein RecA were > 59.6 µM (inactive), > 59.6 µM (inactive) and 11.7 µM (active), respectively.
`COc1ccc(-c2csc(N(CCCN(C)C)C(=O)c3cccs3)n2)cc1`: the EC50 (in data set [5]; on Mu-type opioid receptor; in data set [7]) was > 92.5 µM (inactive) throughout.
Regarding `CC1(C)COC(/C=C/c2cccc([N+](=O)[O-])c2)=N1`, the half-maximal cytotoxic concentration (CC50) in the data set with Vero [13] is 12.6 µM (active); with Vero [14], 15.1 µM (active); in data set [15], 9.78 µM (active). Besides, the IC50 in the data set with Vero [2] was 21.5 µM (active).
As to `CS(=O)(=O)N1CCC2(CC1)CN(c1ccc(-c3ccccc3)cc1)C2`, the concentration at half-maximal activity (AC50) entry at Cytochrome P450 2C19, on Cytochrome P450 1A2 and on Cytochrome P450 2C9 was “inconclusive” throughout.
As to `COc1ccc(C(=O)C2(C)N(O)C(C)C(c3cccs3)=[N+]2[O-])cc1` (stereo unspecified), in the data set on Escherichia coli [16], the AC50 was > 380 µM (inactive).
As to `COc1cc2nc(N3CCN(C(=O)[C@H]4COc5ccccc5O4)CC3)nc(N)c2cc1OC.CS(=O)(=O)O`, the AC50 entry at Cytochrome P450 2C19 and at Cytochrome P450 1A2 was “inactive” each time.
In the case of `COc1ccccc1N1CCN(c2cc(C)c3ccccc3n2)CC1`, the half-maximal inhibitory concentration (IC50) in [17] is 9.89 µM (active).
Regarding `O=C(Nc1ccccc1Cl)c1ccccc1CC(O)(c1ccccc1)c1ccccc1`, the EC50 with HEK293 [10] and in the data set with HEK293 [11] was > 59.7 µM (inactive) each time.

(Values after ChEMBL document CHEMBL1201862, “PubChem BioAssay data set” (2004).)
